# Assay results as given in ChEMBL document CHEMBL5154646, “Structure-guided optimization of 1H-imidazole-2-carboxylic acid derivatives affording potent VIM-Type metallo-β-lactamase inhibitors” (Eur J Med Chem, 2022).
# Tests used:
# Parameters in all cases: species or system Bacteria
# [1] = Inhibition of bacterial VIM-2 (27 to 266 residues) expressed in Escherichia coli Transetta (DE3) using FC-5 as substrate preincubated with enzyme for 10 mins followed by substrate addition by fluorescence based analysis
# [2] = Inhibition of bacterial recombinant full length C-terminal-TEV-His6-tagged VIM-1 expressed in Escherichia coli Transetta using FC-5 as substrate preincubated with enzyme for 10 mins followed by substrate addition by fluorescence based analysis
# [3] = Inhibition of bacterial recombinant full length N-terminal-TEV-His6-tagged VIM-5 expressed in Escherichia coli Transetta using FC-5 as substrate preincubated with enzyme for 10 mins followed by substrate addition by fluorescence based analysis
# [4] = Inhibition of bacterial NDM-1 (1 to 270 residues) expressed in Escherichia coli Transetta (DE3) using FC-5 as substrate preincubated with enzyme for 10 mins followed by substrate addition by fluorescence based analysis
# [5] = Inhibition of bacterial IMP-1 (1 to 246 residues) expressed in Escherichia coli Transetta (DE3) using FC-5 as substrate preincubated with enzyme for 10 mins followed by substrate addition by fluorescence based analysis
IC50 [1] [µM],IC50 [2] [µM],IC50 [3] [µM],IC50 [4] [µM],IC50 [5] [µM],SMILES
3.47,> 300,139,> 300,> 300,Cc1ccc(Cn2ccnc2C(=O)O)cc1
7.76,> 300,> 300,> 300,> 300,Nc1cccc(Cn2ccnc2C(=O)O)c1
0.56,17.5,0.28,> 300,53.7,O=C(O)c1nccn1Cc1ccc(C(F)(F)F)cc1
0.014,2.83,0.052,16.4,9.25,O=C(O)c1nccn1Cc1ccc(Cl)c(Cl)c1
2.7,13.9,0.065,114,30.2,O=C(O)c1nccn1Cc1ccc([N+](=O)[O-])cc1
11.5,> 300,> 300,> 300,17.8,O=C(O)c1nc(C2CC2)cn1Cc1ccccc1
5.79,> 300,23.4,> 300,> 300,CCc1ccc(Cn2ccnc2C(=O)O)cc1
79.1,> 300,48.3,> 300,9.29,O=C(O)c1nc(-c2ccccc2)cn1Cc1ccccc1
30.2,> 300,> 300,> 300,> 300,Nc1ccc(Cn2ccnc2C(=O)O)cc1

# Second part, the compound before the results:
SMILES,IC50 [1] [µM],IC50 [2] [µM],IC50 [3] [µM],IC50 [4] [µM],IC50 [5] [µM]
CN(C)CCn1ccnc1C(=O)O,> 300,> 300,> 300,> 300,> 300
C=CCn1ccnc1C(=O)O,46.4,> 300,> 300,> 300,> 300
CS(=O)(=O)Cn1ccnc1C(=O)O,33.6,> 300,249,> 300,> 300
N#CCCn1ccnc1C(=O)O,22.2,> 300,> 300,> 300,> 300
NCCCn1ccnc1C(=O)O,42.9,> 300,68.2,> 300,> 300
CC(C)Cn1ccnc1C(=O)O,1.1,22.9,7.02,> 300,> 300
Cn1nnnc1SCCn1ccnc1C(=O)O,2.13,45.7,16.5,> 300,160
CSCn1ccnc1C(=O)O,6.89,18,64,> 300,114
O=C(O)c1nccn1Cc1cccs1,2.67,50,28.6,> 300,100
N#CCCCn1ccnc1C(=O)O,11.8,47.1,15.6,> 300,65.6
COC(=O)C(C)n1ccnc1C(=O)O (stereo not given),> 300,> 300,> 300,> 300,> 300
O=C(O)c1nccn1CCO,75.2,> 300,> 300,> 300,> 300
C[S+]([O-])Cn1ccnc1C(=O)O (stereo not given),64.1,> 300,> 300,> 300,> 300
O=C(O)c1nccn1C1CNC1,68.1,26,104,> 300,> 300
O=C(O)c1nccn1C1CC1,19.4,29.7,47.1,> 300,> 300
Cn1cc(Cn2ccnc2C(=O)O)cn1,33.5,> 300,83.9,> 300,> 300
C=CCCn1cc(C)nc1C(=O)O,13.7,> 300,90.5,> 300,4.05
O=C(O)c1nccn1Cc1ccc(F)c(F)c1,15.8,> 300,14.9,> 300,> 300
